Source: paper PMC3220813 (Cancer Chemotherapy and Pharmacology, 2011)
≈ marks a conversion by molar mass, not a printed value. Like-named read-outs stand apart in the source and are kept apart here. Marks after values point to notes of the source that are not given here.

What was measured:
[1] = cited from earlier work; for increase in drug exposure with a high-fat meal: CI-1040 at 800 and 1,600 mg
[2] = tested on: advanced solid malignancies; experiment: Objective tumor response by RECIST 1.0; type: in vivo, human; conditions: 28 evaluable patients, both cutaneous melanoma
[3] = in vivo; cited from earlier work
Safety and tolerability = type: in vivo, human
[4] = type: in vivo, human; conditions: for CL/F, geometric mean / Vd/F / AUC0–t, geometric mean / AUC, geometric mean / Cmax, geometric mean / t1/2, geometric mean / tmax, median: PP population; for time up to which measurable plasma concentrations were observed: both fed and fasted periods; for Vd/F: Vz/F, geometric mean
[5] = tested on: various other kinases, enzymes, receptors, ion channels, and transporters; conditions: cited from earlier work
[6] = ref data on file, cited from earlier work
purified MEK1 = conditions: cited from earlier work
[7] = cited from earlier work
[8] = Classification by permeability and solubility; conditions: tentative; class IV = low permeability and low solubility
Caco-2 cells = conditions: ref data on file; cited from earlier work
[9] = AEs ≥10% of patients, safety population N = 30
[10] = reported in ≥2 patients, safety population, Total (N = 11)
[11] = Fasted, metabolite after 75 mg selumetinib
[12] = Fed, metabolite after 75 mg selumetinib

## O=C(NOCC1CC1)c1ccc(F)c(F)c1Nc1ccc(I)cc1Cl [CI-1040]
[1]
  increase in drug exposure with a high-fat meal: 4.5 fold
[1]; administered with food
  MTD and recommended Phase II dose (RP2D): 800 mg BID

## Cn1cnc2c(F)c(Nc3ccc(Br)cc3Cl)c(C(=O)NOCCO)cc21 [selumetinib]
[2]
  partial responses: 7.1%
[3]
  route of excretion: predominantly via the feces
Safety and tolerability; 75 mg, advanced cancer population
  tolerability / safety profile: well tolerated
Safety and tolerability; [9]
  Abdominal pain, number (%) of patients: 8 (26.7) Number (%) of patients
  Anemia, number (%) of patients: 7 (23.3) Number (%) of patients
  Constipation, number (%) of patients: 11 (36.7) Number (%) of patients
  Diarrhea, number (%) of patients: 14 (46.7) Number (%) of patients
  Dizziness, number (%) of patients: 8 (26.7) Number (%) of patients
  Dyspnoea, number (%) of patients: 10 (33.3) Number (%) of patients
  Edema peripheral, number (%) of patients: 7 (23.3) Number (%) of patients
  Fatigue, number (%) of patients: 13 (43.3) Number (%) of patients
  Headache, number (%) of patients: 7 (23.3) Number (%) of patients
  Nausea, number (%) of patients: 18 (60.0) Number (%) of patients
  Rash, number (%) of patients: 16 (53.3) Number (%) of patients
  Vomiting, number (%) of patients: 9 (30.0) Number (%) of patients
Safety and tolerability; extension part, 75 mg BD, largely due to AEs (n = 6)
  patients with one or more dose reductions: 10 patients
Safety and tolerability; intestinal perforation due to disease progression
  patients who died whilst on study: 3.3%
Safety and tolerability; not considered causally related to study treatment
  patients with grade 4 AEs: 6.7%
Safety and tolerability; overall safety population, 30 patients
  patients reporting an AE of grade 3 or higher: 60.0%
Safety and tolerability; [10]
  Abdominal pain, SAE of ≥CTC grade 3, number (%) of patients: 2 (6.7) Number (%) of patients
  Anemia, SAE of ≥CTC grade 3, number (%) of patients: 2 (6.7) Number (%) of patients
  Constipation, SAE of ≥CTC grade 3, number (%) of patients: 2 (6.7) Number (%) of patients
  Dyspnoea, SAE of ≥CTC grade 3, number (%) of patients: 3 (10.0) Number (%) of patients
  Vomiting, SAE of ≥CTC grade 3, number (%) of patients: 2 (6.7) Number (%) of patients
[4]; 75 mg, fed minus fasted
  delay of median tmax in the presence of food: approximately 2.5 h
[4]; Fasted
  CL/F, geometric mean: 12.9 L/h
[4]; Fed
  CL/F, geometric mean: 16.0 L/h
[4]
  time up to which measurable plasma concentrations were observed: up to 48 h
[4]; human, plasma, oral, 75 mg
  AUC(0-t): 5640 ng·h/mL
[4]; human, plasma, oral, 75 mg, Fasted
  Vd/F: 175 L
[4]; human, plasma, oral, 75 mg, Fed
  Vd/F: 199 L
[5]
  activity against various other kinases, enzymes, receptors, ion channels, and transporters: did not show significant activity
[6]; pH1
  solubility: 274 µg/mL (≈ 599 µM)
[6]; pH 7.4
  solubility: 3.4 µg/mL (≈ 7.43 µM)
Purified MEK1; read-out: IC50 against purified MEK1
  IC50: 14 nM
[7]; across studied dose range
  total body clearance from plasma after an oral dose (CL/F): 12 to 23 L/h
  volume of distribution at steady state (Vss/F): 87 to 126 L
[7]; single dose
  terminal elimination half-life (t1/2): 5 to 8 h
[8]
  class (permeability/solubility classification): tentative class IV
Caco-2 cells
  permeability across Caco-2 cells: moderate permeability

## O=C(O)c1ccc(F)c(F)c1Nc1ccc(I)cc1Cl [PD-0184264]
[1]
  increase in drug exposure with a high-fat meal: 5 fold

## O=C(NOCCO)c1cc2nc[nH]c2c(F)c1Nc1ccc(Br)cc1Cl [N-desmethyl-selumetinib]
[4]; [11]
  AUC0–t, geometric mean: 376.4 ng/h/mL
  AUC, geometric mean: 418.4 ng·h/mL
  Cmax, geometric mean: 73.9 ng/mL
  t1/2, geometric mean: 7.7 h
  tmax, median: 1.50^a h
[4]; [12]
  AUC0–t, geometric mean: 282.4 ng/h/mL
  AUC, geometric mean: 379.1 ng·h/mL
  Cmax, geometric mean: 33.5 ng/mL
  t1/2, geometric mean: 6.8 h
  tmax, median: 4.0^a h
[4]
  time up to which measurable plasma concentrations were observed: up to 24 h
[4]; fasted state
  ratio of N-desmethyl-selumetinib to selumetinib (metabolite to parent): 0.07
[4]; fed state
  ratio of N-desmethyl-selumetinib to selumetinib (metabolite to parent): 0.06
[4]; metabolite after 75 mg selumetinib
  delay of median tmax in the fed condition: approximately 3 h
Purified MEK1; in vitro
  greater potency for MEK1 inhibition than selumetinib: 3- to 5 fold
[7]; plasma metabolite exposure
  AUC relative to parent compound: < 15%
  Cmax relative to parent compound: < 15%

## Cn1cnc2c(F)c(Nc3ccc(Br)cc3Cl)c(C(N)=O)cc21 [selumetinib amide]
Purified MEK1
  less active than selumetinib: up to 50 fold
